This test concerns isolated rat aorta. The experiment in a line: Calcium inhibitory properties: contractile response to potassium-induced depolarization on isolated rat aorta. More on the design: species or system isolated organ, male Wistar rats. Particulars: for activity at 1 µM / activity at 0.1 µM / activity at 0.01 µM / activity at 0.001 µM: Rattus norvegicus, 1 h, read-out: % of the maximum contractional effect; for % of the maximum contractional effect: 60 min; for activity at 0.001 µM: 10^-9 M. The source says: It is well established that the depolarization of a smooth muscle membrane by potassium renders the latter permeable to extracellular calcium and induces muscle contraction. Consequently, the measurement of the inhibition of the contractile response to depolarization by potassium, or the measurement of a relaxation of the tonic contraction on potassium depolarization, can represent an evaluation of the power of a compound as an inhibitor of the membrane permeability to Ca^++ ions. The technique used was as follows: The aorta was removed from male Wistar rats weighing approximately 300 g, and cut into strips approximately 40 mm long and 3 mm wide. These fragments were placed in a 25-ml isolated organ trough containing a modified Krebs-bicarbonate solution (112 mM NaCl; 5 mM KCl; 25 mM NaHCO3; 1 mM KH2 PO4; 1.2 mM MgSO4; 2.5 mM CaCl2; 11.5 mM glucose, distilled water to 1000 ml) through which a stream of 5-7% carbon dioxide in oxygen was passed, and maintained at 37° C. The preparation was connected to a force microsensor and the contractile response recorded after amplification on a recorder. A tension of 2 g was applied to the preparation. This tension was maintained for 60 minutes in the modified Krebs-bicarbonate solution, and contractions were then induced by replacing the Krebs-bicarbonate solution by a potassium-Krebs solution (17 mM NaCl; 100 mM KCl; 25 mM NaHCO3; 1 mM KH2 PO4; 1.2 mM MgSO4; 2.5 mM CaCl2; 11.5 mM glucose; distilled water to 1000 ml). When the contractile response of the preparation had become reproducible, a given amount of a compound of the invention was introduced into the bath. Sixty minutes later, a new spasm was induced by potassium depolarization. The results obtained on the aorta used in the experiment were then expressed as a percentage of the maximum contractional effect before incubation with the test substance. By way of examples, the results which follow were obtained, the compounds of formula (1) being in the form of the base, hydrochloride or oxalate.

Setting [1] is: head printed "10^-" (exponent missing; first of three columns before 10^-6 M).

Where a name gives a salt, the structure may show the parent alone.

`CCCCN(CCCC)CCCOc1ccc(S(=O)(=O)c2ccccn2)cc1` [Ex. 58, 2-{4-[3-(di-n-butylamino)propyloxybenzenesulphonyl}pyridine oxalate]: the activity at 1 µM (10^-6 M) was found to be 84.7%. In addition, the activity at 0.1 µM (10^-7 M) worked out at 88.9%. Also, the “% of the maximum contractional effect” value under setting [1] is on record as 37%.
On to `CCCCN(CCCC)CCCOc1ccc(S(=O)(=O)c2ccncc2)cc1.O=C(O)C(=O)O.O=C(O)C(=O)O` [Ex. 60, 4-{4-[3-(di-n-butylamino)propyloxy]benzenesulphonyl}pyridine dioxalate], for which the activity at 1 µM (10^-6 M) is 75.5%. For the same molecule, for the setting “10^-7 M”, the activity at 0.1 µM worked out at 89.7%. Besides, the “% of the maximum contractional effect” value under setting [1] worked out at 20.2%.
The corresponding values for `COc1ccc(CCN(C)CCCOc2ccc(S(=O)(=O)c3ccncc3)cc2)cc1OC` [Ex. 61, 4-[4-{3-[N-methyl-N-(3,4-dimethoxy-βphenethyl)amino]propyloxy}benzenesulphonyl]pyridine oxalate] are 70.7%, 88% and 14%.
`CC(C)(C)NCCCOc1ccc(S(=O)(=O)c2ccccn2)cc1` [Ex. 62, 2-{4-[3-(tertiobutylamino)propyloxy]benzenesulphonyl}pyridine oxalate]: the activity at 1 µM (10^-6 M) worked out at 87.1%. For the same molecule, the “% of the maximum contractional effect” value under setting [1] came out at 70.6%.
`CCCCN(CCCC)CCCOc1ccc(S(=O)(=O)c2ccoc2C(C)C)cc1` [Ex. 78, 2-isopropyl-3-{4-[3-(di-n-butylamino)propyloxy]benzenesulphonyl}furan oxalate]: the activity at 1 µM (10^-6 M) was found to be 4%. For the same molecule, the activity at 0.1 µM (10^-7 M) amounted to 59.4%. The activity at 0.01 µM (10^-8 M) came out at 90.3%.
The corresponding values for `CC(C)c1occc1S(=O)(=O)c1ccc(OCCCNC(C)(C)C)cc1` [Ex. 79, 2-isopropyl-3-{4-[3-(tert-butylamino)propyloxy]benzenesulphonyl}furan oxalate] are 10.3%, 77.9% and 94.3%.
Regarding `COc1ccc(CCN(C)CCCOc2ccc(Sc3cnnc4ccccc34)cc2)cc1OC` [Ex. 80, 4-[4-{3-[N-methyl-N-(3,4-dimethoxy-β-phenethyl)amino]propyloxy}phenylthio]cinnoline oxalate], the activity at 1 µM (10^-6 M) amounted to 64.2%. Besides, the activity at 0.1 µM (10^-7 M) is 85.4%. Besides, under setting [1], the “% of the maximum contractional effect” value came out at 3.0%.
The corresponding values for `COc1ccc(CCN(C)CCCOc2ccc(S(=O)(=O)c3cc4ccccc4nn3)cc2)cc1OC` [Ex. 81, 3-[4-{3-[N-methyl-N-(3,4-dimethoxy-β-phenethyl)amino]propyloxy}benzenesulphonyl]cinnoline oxalate] are 73.1%, 86.6% and 19.2%.
For `COc1ccc(CCN(C)CCCOc2ccc(Sc3cc4ccccc4nn3)cc2)cc1OC` [Ex. 82, 3-[4-{3-[N-methyl-N-(3,4-dimethoxy-β-phenethyl)amio]propyloxy}phenylthio]cinnoline oxalate], in that order: 55%, 90.2% and 6.7%.
Regarding `COc1ccc(CN(C)CCCOc2ccc(S(=O)(=O)c3c(C(C)C)oc4ccccc34)cc2)cc1OC` [Ex. 88, 2-isopropyl-3-[4-{3-[N-methyl-N-(3,4-dimethoxy-benzyl)amino)propyloxy}benzenesulphonyl]benzofuran acid oxalate], the activity at 0.001 µM is 87%. In addition, for the setting “10^-6 M”, the activity at 1 µM is 8.7%. Besides, the activity at 0.1 µM (10^-7 M) was determined as 11.2%. Also, the activity at 0.01 µM (10^-8 M) turned out to be 61.9%.
Take `COc1ccc(CN(C)CCOc2ccc(S(=O)(=O)c3c(C(C)C)oc4ccccc34)cc2)cc1OC` [Ex. 89, 2-Isopropyl-3-[4-{2-[N-methyl-N-(3,4-dimethoxy-benzyl)amino]ethyloxy}benzenesulphonylbenzofuran hemioxalate]: the activity at 0.001 µM came out at 83.9%. Moreover, the activity at 0.1 µM (10^-7 M) stood at 4.7%. Besides, for the setting “10^-8 M”, the activity at 0.01 µM is 53.3%.
`COc1ccc(CCN(C)CCCOc2ccc(S(=O)(=O)c3c(C(C)C)oc4ccccc34)cc2)cc1OC.O=C(O)C(=O)O` [Ex. 90, 2-Isopropyl-3-[4-{3-[N-methyl-N-(3,4-dimethoxy-β-phenethyl)amino]propyloxy}benzenesulphonyl]benzofuran acid oxalate]: the “% of the maximum contractional effect” value is, setting by setting: (10^-6 M, 1 µM) 0%; (10^-7 M, 0.1 µM) 21.3%; (10^-8 M, 0.01 µM) 56.9%.
With `COc1ccc(CCN(C)CCOc2ccc(S(=O)(=O)c3c(C(C)C)oc4ccccc34)cc2)cc1OC` [Ex. 91, 2-Isopropyl-3-[4-{2-[N-methyl-N-(3,4-dimethoxy-β-phenethyl)amino]ethyloxy}benzenesulphonylbenzofuran hemioxalate], the activity at 0.1 µM (10^-7 M) amounted to 11.1%. Also, the activity at 0.01 µM (10^-8 M) was found to be 53.9%.
Turning to `COc1ccc(CN(C)CCCCOc2ccc(S(=O)(=O)c3c(C(C)C)oc4ccccc34)cc2)cc1OC` [Ex. 92, 2-Isopropyl-3-[4-{4-[N-methyl-N-(3,4-dimethoxy-benzyl)amino]butyloxy}benzenesulphonyl]benzofuran hemioxalate], the activity at 0.001 µM stood at 80.8%. Moreover, the activity at 1 µM (10^-6 M) came to 3.8%. The activity at 0.1 µM (10^-7 M) stood at 31.5%. Further, the activity at 0.01 µM (10^-8 M) is 61%.
On to `COc1ccc(CCN(C)CCCCOc2ccc(S(=O)(=O)c3c(C(C)C)oc4ccccc34)cc2)cc1OC` [Ex. 93, 2-Isopropyl-3-[4-{4-[N-methyl-N-(3,4-dimethoxy-β-phenethyl)amino]butyloxy}benzenesulphonyl]benzofuran acid oxalate], for which the activity at 0.1 µM (10^-7 M) worked out at 33.6%. Also, the activity at 0.01 µM (10^-8 M) is 53.1%.
On to `CC(C)c1oc2ccccc2c1S(=O)(=O)c1ccc(OCCCNCCc2ccc3c(c2)OCO3)cc1.O=C(O)C(=O)O` [Ex. 95, 2-Isopropyl-3-[4-{3-[N-[3-(1,3-benzodioxolyl)]-β-ethyl]amino]propyloxy}benzenesulphonyl benzofuran acid oxalate], for which the “% of the maximum contractional effect” value is 13.6% (10^-6 M, 1 µM); 50.6% (10^-7 M, 0.1 µM); 81.4% (10^-8 M, 0.01 µM).
As to `COc1ccc(CCN(C)CCCOc2ccc(S(=O)(=O)c3nccn3C(C)C)cc2)cc1OC` [Ex. 96, 1-isopropyl-2-[4-{3-[N-methyl-N-(3,4-dimethoxy-β-phenethyl)amino]propyloxy}benzenesulphonyl]imidazole dihydrochloride], where the note is “10^-6 M”, the activity at 1 µM was 92.4%. The activity at 0.1 µM (10^-7 M) amounted to 87.3%. Moreover, the “% of the maximum contractional effect” value under setting [1] stood at 65.8%.
As for `COc1ccc(CCN(C)CCCOc2ccc(S(=O)(=O)c3nccn3Cc3ccccc3)cc2)cc1OC` [Ex. 97, 1-benzyl-2-[4-{3-[N-methyl-N-(3,4-dimethoxy-β-phenethyl)amino]propyloxy}benzenesulphonyl]imidazole acid oxalate], the activity at 1 µM (10^-6 M) is 66.7%. Also, the activity at 0.1 µM (10^-7 M) amounted to 87.5%. Under setting [1], the “% of the maximum contractional effect” value is 23.5%.
In the case of `COc1ccc(CCN(C)CCCOc2ccc(S(=O)(=O)c3cn[nH]c3C(C)C)cc2)cc1OC` [Ex. 100, 4-[4-{3-[N-methyl-N-(3,4-dimethoxy-β-phenethyl)amino]propyloxy}benzenesulphonyl]-5-isopropyl-pyrazole acid oxalate], under “10^-6 M”, the activity at 1 µM came to 62.5%. In addition, the activity at 0.1 µM (10^-7 M) was 87.6%. Moreover, the “% of the maximum contractional effect” value under setting [1] was determined as 15.1%.
Regarding `COc1ccc(CCN(C)CCCOc2ccc(S(=O)(=O)c3ccc4ccccc4c3)cc2)cc1OC` [Ex. 103, 2-[4-{3-[N-methyl-N-(3,4-dimethoxy-β-phenethyl)amino]propyloxy}benzenesulphonyl]-naphthalene acid oxalate], the activity at 1 µM (10^-6 M) was found to be 16.8%. In addition, for the setting “10^-7 M”, the activity at 0.1 µM was found to be 62.8%. Also, for the setting “10^-8 M”, the activity at 0.01 µM came out at 83.3%.
Consider `COc1ccc(CCN(C)CCCOc2ccc(S(=O)(=O)c3c(C(C)C)[nH]c4ccccc34)cc2)cc1OC` [Ex. 105, 2-isopropyl-3-[4-{3-[N-methyl-N-(3,4-dimethoxy-β-phenethyl)amino]propyloxy}benzenesulphonyl]indole hemioxalate], for which the activity at 0.001 µM came out at 83.6%. For the same molecule, the activity at 0.1 µM (10^-7 M) was 11.9%. Under “10^-8 M”, the activity at 0.01 µM was determined as 62.9%.
For the molecule `CCCCN(CCCC)CCCOc1ccc(S(=O)(=O)c2c(C(C)C)[nH]c3ccccc23)cc1` [Ex. 106, 2-Isopropyl-3-{4-[3-(di-n-butylamino)propyloxy]benzenesulphonyl}indole acid], the activity at 1 µM (10^-6 M) stood at 4.9%. For the setting “10^-7 M”, the activity at 0.1 µM turned out to be 37.4%. The activity at 0.01 µM (10^-8 M) is 66%.

For the origin of these results see patent US5147878A, “Aminoalkoxyphenyl derivatives, process of preparation and compositions containing the same” (Sanofi, priority 1986, dated 1992).
